Results: patent publication US11230550
Where two headings read alike, the source gives them in different places.

Details: rcm bond, Grubbs I, CH2Cl2, 40.0 °C

| Compound | ring closure, yield of all isomers (from C=CCCCCN(C[C@@H](O)[C@H](Cc1ccccc1)NC(=O)OC(C)(C)C)S(=O)(=O)c1ccc(OC)cc1COCC=C, 2.65 mM, 4.0 h) [%] | ring closure, yield of all isomers (from C=CCCCCN(C[C@@H](O)[C@H](Cc1ccccc1)NC(=O)OC(C)(C)C)S(=O)(=O)c1ccc([N+](=O)[O-])cc1COCC=C, 1.625 mM, 3.0 h) [%] |
| --- | --- | --- |
| COc1ccc2c(c1)COCC=CCCCCN(C[C@@H](O)[C@H](Cc1ccccc1)NC(=O)OC(C)(C)C)S2(=O)=O | 93 |  |
| CC(C)(C)OC(=O)N[C@@H](Cc1ccccc1)[C@H](O)CN1CCCCC=CCOCc2cc([N+](=O)[O-])ccc2S1(=O)=O |  | 92 |
